Reference: PMC5321434, “Dihydrobenz[e][1,4]oxazepin-2(3H)-ones, a new anthelmintic chemotype immobilising whipworm and reducing infectivity in vivo” (PLoS Neglected Tropical Diseases, 2017)

Test system: adult T. muris
Test: Ex vivo adult T. muris automated motility assay (primary/secondary screen at 100 μM and dose-response)
Design: species or system Trichuris muris
Conditions: for PRIMARY_SCREEN_MINUS_LOG_FOLD_CHANGE_MOVEMENT: primary screen; for PRIMARY_SCREEN_MINUS_LOG_FOLD_CHANGE_MOVEMENT / SECONDARY_SCREEN_MINUS_LOG_FOLD_CHANGE_MOVEMENT: adult T. muris motility; for SECONDARY_SCREEN_MINUS_LOG_FOLD_CHANGE_MOVEMENT: secondary screen
Procedure: Severe combined immune deficiency (SCID) mice were bred in the Biological Services Facility at the University of Manchester. Both male and female SCID mice were infected with a high dose of 200 infective embryonated T. muris eggs via oral gavage. At day 35 post-infection, groups of 5 mice were killed and their […] colons removed. Guts were opened longitudinally, washed with pre-warmed Roswell Park Memorial Institute (RPMI) 1640 media supplemented with penicillin (500U/ml) and streptomycin (500μg/ml) and adult T. muris worms gently removed using fine forceps. Worms removed from SCID mice were maintained in RPMI-1640 media supplemented with penicillin (500U/ml) and streptomycin (500μg/ml) at approximately 37°C and studied on the same day. Using fine forceps, individual live worms were placed into 96 well plates containing 75μl of RPMI-1640 medium supplemented with penicillin (500U/ml) and streptomycin (500μg/ml) plus 1% final concentration of DMSO or compound dissolved in DMSO. In the primary screen the test compound concentration was 100μM. Plates were then incubated at 37°C, 5% CO2, and motility was analysed after 24 hours. Worm movement was quantified using an automated motility assay. This system gives an estimate of worm movement in each well by thresholding and quantifying pixel intensity variance over time. An earlier version of this system has been previously described. One adult T. muris worm was used per well, with one well per compound in each replicate of the primary screen. The primary screen was repeated each week for a period of four weeks giving four independent biological replicates from separate parasite batches for each compound. Dose-response curves were calculated with the four factor log-logistic model using the R package drc. The primary screen was carried out at 100μM final concentration. Assay plates were assigned unique IDs and statistical analysis was performed without knowledge of compound identities using R scripts. Once hit wells were identified, well/plate positions were mapped to compound identities using DataWarrior [28]. […] Compounds identified as having encouraging activity from the DMSO solution samples were then resynthesized for confirmatory testing.

[1] = combined primary and secondary screen minus log fold change in movement, adult T. muris, 100 μM
[2] = adult T. muris motility screen at 100 μM, combines primary and secondary screen minus log fold change in movement (mean where both are given)

Row | SMILES | COMBINED_SCREEN_ACTIVITY [1] | PRIMARY_SCREEN_MINUS_LOG_FOLD_CHANGE_MOVEMENT (100 μM) | SECONDARY_SCREEN_MINUS_LOG_FOLD_CHANGE_MOVEMENT (100 μM) | COMBINED_SCREEN_ACTIVITY [2]
1 | O=C1COCc2ccc(-c3cccc(O)c3)cc2N1Cc1ccccc1Cl [Compound 133] | -0.006244 | -0.006244 | – | –
2 | O=C1COCc2cc(-c3cccc(O)c3)ccc2N1CCc1ccccc1 [Compound 97] | -0.7944 | -0.7944 | – | –
3 | COCCN1C(=O)COCc2ccc(Br)cc21 [Compound 31] | -1.486 | -1.486 | – | –
4 | COc1ccccc1-c1ccc2c(c1)N(Cc1ccccc1Cl)C(=O)COC2 [Compound 151] | -1.249 | -1.249 | – | –
5 | CC(C)N1C(=O)COCc2ccc(-c3cccc(F)c3)cc21 [Compound 29] | 1.463 | 1.463 | – | –
6 | Cc1ccc(CN2C(=O)COCc3ccccc32)cc1 [Compound 7] | -0.007203 | -0.007203 | – | –
7 | COc1cc(F)ccc1-c1ccc2c(c1)N(CCc1ccccc1)C(=O)COC2 [Compound 146] | -0.8154 | -0.8154 | – | –
8 | COc1ccc(-c2ccc3c(c2)N(CC2CC2)C(=O)COC3)cn1 [Compound 44] | -1.021 | -1.021 | – | –
9 | COc1cccc(CN2C(=O)COCc3ccc(-c4cccc(F)c4)cc32)c1 [Compound 131] | -0.1165 | -0.1165 | – | –
10 | COCCN1C(=O)COCc2ccc(-c3cccc(NC(C)=O)c3)cc21 [Compound 88] | -0.1104 | -1.635 | 1.414 | –
11 | CC(C)N1C(=O)COCc2ccc(-c3cccnc3)cc21 [Compound 13] | -0.8665 | -0.8665 | – | –
12 | COc1cccc(CN2C(=O)COCc3cc(-c4cccc(CO)c4)ccc32)c1 [Compound 142] | -0.6408 | -0.6408 | – | –
13 | Cc1ccccc1-c1ccc2c(c1)N(CCN1CCOCC1)C(=O)COC2 [Compound 112] | -1.303 | -1.303 | – | –
14 | COc1cccc(CN2C(=O)COCc3ccc(-c4ccc5c(c4)OCO5)cc32)c1 [Compound 169] | 0.1266 | 0.1266 | – | –
15 | COc1ccccc1-c1cccc2c1COCC(=O)N2Cc1ccccc1 [Compound 94] | 10.5493 | 10.5493 | – | –
16 | O=C1COCc2c(Br)cccc2N1Cc1ccccc1 [Compound 55] | 1.386 | 1.386 | – | –
17 | CC(C)c1cccc(-c2ccc3c(c2)N(CCN2CCOCC2)C(=O)COC3)c1 [Compound 152] | 5.995 | 5.995 | – | –
18 | O=C1COCc2cc(-c3cccc(O)c3)ccc2N1Cc1ccccc1 [Compound 78] | -0.318 | -0.318 | – | –
19 | Cc1ccccc1CN1C(=O)COCc2ccc(Br)cc21 [Compound 81] | 11.5466 | 10.4743 | 12.6188 | –
20 | CC(C)N1C(=O)COCc2ccc(-c3cnn(C)c3)cc21 [Compound 20] | 0.06851 | 0.06851 | – | –
21 | Cc1ccc(-c2cccc3c2COCC(=O)N3C)cc1C [Compound 11] | -0.1315 | -0.1315 | – | –
22 | COCCN1C(=O)COCc2ccc(-c3cccc(C(=O)OC)c3)cc21 [Compound 93] | -1.513 | -1.513 | – | –
23 | O=C1COCc2ccc(-c3cccnc3)cc2N1CC1CCCCC1 [Compound 61] | 11.7341 | 10.8493 | 12.6188 | –
24 | COC(=O)c1cccc(-c2ccc3c(c2)N(Cc2cccc(OC)c2)C(=O)COC3)c1 [Compound 183] | – | -1.271 | – | -1.271
25 | O=C1COCc2ccc(-c3cccnc3)cc2N1Cc1ccc(C(F)(F)F)cc1 [Compound 159] | 11.6591 | 10.6993 | 12.6188 | –

Row | SMILES | COMBINED_SCREEN_ACTIVITY [1] | PRIMARY_SCREEN_MINUS_LOG_FOLD_CHANGE_MOVEMENT (100 μM) | SECONDARY_SCREEN_MINUS_LOG_FOLD_CHANGE_MOVEMENT (100 μM) | COMBINED_SCREEN_ACTIVITY [2]
26 | N#Cc1cccc(-c2ccc3c(c2)COCC(=O)N3Cc2ccccc2)c1 [Compound 90] | -1.512 | -1.512 | – | –
27 | O=C1COCc2cc(-c3cccc(CO)c3)ccc2N1Cc1ccc2c(c1)OCO2 [Compound 168] | 1.914 | 1.914 | – | –
28 | COCCN1C(=O)COCc2ccc(-c3cccc(C(C)C)c3)cc21 [Compound 66] | 7.026 | 7.026 | – | –
29 | O=C1COCc2ccc(-c3cccnc3)cc2N1CC1CC1 [Compound 25] | -1.503 | -1.503 | – | –
30 | O=C1COCc2ccc(-c3cccnc3)cc2N1Cc1cc(F)cc(F)c1 [Compound 110] | -0.9208 | -0.9208 | – | –
31 | O=C1COCc2cc(-c3ccncc3)ccc2N1Cc1ccccc1 [Compound 52] | 0.9757 | 0.9757 | – | –
32 | COc1cccc(CN2C(=O)COCc3cc(-c4cccc(F)c4)ccc32)c1 [Compound 130] | 0.2069 | 0.2069 | – | –
33 | O=C1COCc2ccccc2N1Cc1ccccc1Cl [Compound 21] | -1.647 | -1.647 | – | –
34 | O=C1COCc2ccc(-c3ccc(Cl)cc3)cc2N1CC1CC1 [Compound 47] | 1.5592 | 1.5592 | – | –
35 | Cc1ccc(-c2ccc3c(c2)COCC(=O)N3Cc2ccc(C(=O)N(C)C)cc2)cc1C [Compound 186] | – | 10.5493 | – | 10.5493
36 | COc1cccc(CN2C(=O)COCc3cc(-c4ccc(OC)nc4)ccc32)c1 [Compound 143] | -1.1304 | -1.1304 | – | –
37 | O=C1COCc2cc(-c3ccncc3)ccc2N1Cc1ccc2c(c1)OCO2 [Compound 124] | 0.4678 | 0.4678 | – | –
38 | CC(C)c1cccc(-c2ccc3c(c2)COCC(=O)N3Cc2ccc(C(=O)N(C)C)cc2)c1 [Compound 190] | – | 10.3993 | 11.6188 | 11.0091
39 | COc1ccccc1-c1ccc2c(c1)COCC(=O)N2Cc1ccc(C(=O)N(C)C)cc1 [Compound 188] | – | 1.744 | – | 1.744
40 | Cc1ccccc1CN1C(=O)COCc2ccc(-c3cccc(CO)c3)cc21 [Compound 122] | -0.2289 | -1.039 | 0.5816 | –
41 | Cn1cc(-c2ccc3c(c2)COCC(=O)N3CC2CCCCC2)cn1 [Compound 67] | 7.315 | 2.012 | 12.6188 | –
42 | COc1ccc(CN2C(=O)COCc3ccccc32)cc1 [Compound 14] | -1.77 | -1.77 | – | –
43 | CN1C(=O)COCc2c(-c3cccc(CO)c3)cccc21 [Compound 15] | -0.7825 | -0.7825 | – | –
44 | O=C1COCc2cc(-c3cc(F)cc(F)c3)ccc2N1CCN1CCOCC1 [Compound 138] | -0.5965 | -0.5965 | – | –
45 | O=C1COCc2ccc(Br)cc2N1CCN1CCOCC1 [Compound 92] | -1.293 | -1.293 | – | –
46 | Cn1cc(-c2ccc3c(c2)COCC(=O)N3Cc2ccc(C(F)(F)F)cc2)cn1 [Compound 165] | 10.5493 | 10.5493 | – | –
47 | O=C1COCc2cc(Br)ccc2N1CC1CC1 [Compound 26] | -0.588 | -0.588 | – | –
48 | O=C1COCc2ccc(-c3ccccc3)cc2N1CCN1CCOCC1 [Compound 85] | 0.2067 | 0.2067 | – | –
49 | COc1ccc(-c2ccc3c(c2)N(CC2CC2)C(=O)COC3)cc1 [Compound 43] | 3.877 | 3.877 | – | –
50 | COCCN1C(=O)COCc2ccc(-c3ccc(OC)cc3)cc21 [Compound 46] | -1.143 | -1.143 | – | –
